# Measured values taken from ChEMBL document CHEMBL1201862, “PubChem BioAssay data set” (2004).
# Active and inactive are the calls of the source.
# Assays:
# [1] = biological target: DNA dC->dU-editing enzyme APOBEC-3A (Homo sapiens, UniProt P31941); experiment: A3A deaminase inhibition for selectivity – biochemical, dose response (AID 504722); assay type: functional
# Hexokinase = biological target: T1, Hexokinase (Trypanosoma brucei, UniProt Q38C41); experiment: Confirmation assay for inhibitors of Trypanosoma brucei hexokinase 1-Analogue-first series. [Related pubchem assays (depositor defined):AID1430, AID1632, AID2516, AID2560, AID2579, AID2600, AID449725, AID492951]; assay type: functional
# T1 sequence (Q38C41 whole entry): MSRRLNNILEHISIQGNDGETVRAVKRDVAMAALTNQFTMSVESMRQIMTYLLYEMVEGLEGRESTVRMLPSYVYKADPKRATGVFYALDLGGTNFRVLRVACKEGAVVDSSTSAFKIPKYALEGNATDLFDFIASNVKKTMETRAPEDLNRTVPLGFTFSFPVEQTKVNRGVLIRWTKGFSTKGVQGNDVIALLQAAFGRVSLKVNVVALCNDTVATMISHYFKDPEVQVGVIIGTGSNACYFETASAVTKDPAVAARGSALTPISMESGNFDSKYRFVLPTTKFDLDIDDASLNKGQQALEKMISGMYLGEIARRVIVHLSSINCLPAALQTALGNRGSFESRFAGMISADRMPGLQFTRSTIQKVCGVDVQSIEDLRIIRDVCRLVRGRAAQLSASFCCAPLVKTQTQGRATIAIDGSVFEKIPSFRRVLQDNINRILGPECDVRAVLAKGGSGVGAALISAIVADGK
# Aspartyl aminopeptidase = Aspartyl aminopeptidase (Plasmodium falciparum 3D7, UniProt Q8I2J3)
# [2] = biological target: Glucose-6-phosphate 1-dehydrogenase (Homo sapiens, UniProt P11413); experiment: inhibition of Homo sapiens G6PD, dose series – biochemical, fluorescence, selectivity assay for P. falciparum G6PD inhibitor project, dose response (AID 504792); assay type: functional
# [3] = biological target: Eukaryotic translation initiation factor 4E (Mus musculus, UniProt P63073); experiment: blockers of eIF4G binding by eIF4E – biochemical, TR-FRET, dose response (AID 855); assay type: functional;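 note: potency for disrupting eIF4E binding to eIF4GI seen as loss of FRET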
# [4] = viability loss in human Jurkat cells – cell-based, luminescence, cytotoxicity control for P. falciparum gametocyte viability project, dose response (AID 1117277); assay type: functional;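 note: potency reflects loss of cellular ATP meaning fewer viable cells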
# Procathepsin L = Procathepsin L (Homo sapiens, UniProt P07711)
# [5] = biological target: DNA dC->dU-editing enzyme APOBEC-3G (Homo sapiens, UniProt Q9HC16); experiment: Dose Response confirmation of small molecule APOBEC3G DNA Deaminase Inhibitors via a fluorescence-based single-stranded DNA deaminase assay. [Related pubchem assays (depositor defined):AID493012, AID493028]; assay type: functional
# [6] = microbe, parasite or virus in culture; assay type: functional; settings: Mycobacterium tuberculosis
# cells = assay type: functional
# [7] = Vero E6 cell cytotoxicity, dose response, cytotoxicity control for non-replicating M. tuberculosis project, secondary assay (AID 492998); assay type: functional, VeroE6; settings: Vero C1008
# Large T antigen = Large T antigen (Simian virus 40, UniProt P03070); assay type: functional, Betapolyomavirus macacae;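 note: Confirmatory-stage PubChem screen for compounds that inhibit SV40 T antigen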
# [8] = THP-1 cell cytotoxicity, dose response, cytotoxicity control for non-replicating M. tuberculosis project (AID 489025); assay type: functional
# [9] = biological target: Mitochondrial peptide methionine sulfoxide reductase (Bos taurus, UniProt P54149); experiment: Absorbance-based biochemical high throughput dose response assay for activators of Methionine sulfoxide reductase A (MsrA).; assay type: functional
# [10] = viability inhibitors of stage V gametocytes – luminescence, dose response (AID 1117278); assay type: functional, cell-based;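 note: gametocytes exposed to compound for 24 hours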
# [11] = biological target: Mannose-6-phosphate isomerase (Homo sapiens, UniProt P34949); experiment: MPI inhibition at elevated mannose 6-phosphate – biochemical, fluorescence intensity, high mannose 6-phosphate, primary screen (AID 1220)
# [12] = biological target: Eukaryotic translation initiation factor 4H (Homo sapiens, UniProt Q15056); experiment: eIF4H binding inhibition – biochemical, uHTS, fluorescence polarization, translation initiation inhibitor project, primary screen (AID 2012)
# [13] = biological target: Polyadenylate-binding protein 1 (Homo sapiens, UniProt P11940); experiment: blockers of PABP interaction with poly(A) – biochemical, fluorescence polarization, […] (AID 2014)
# Cytochrome P450 2D6 = Cytochrome P450 2D6 (Homo sapiens, UniProt P10635); experiment: qHTS Assay for Inhibitors and Substrates of Cytochrome P450 2D6. [Related pubchem assays: 410 ]; assay type: ADME; settings: read-out: Potency
# Galanin receptor type 2 = Galanin receptor type 2 (Homo sapiens, UniProt O43603); experiment: Dose Response cell-based high-throughput screening assay to identify antagonists of galanin receptor 2 (GALR2). [Related pubchem assays: 828, 866 ]; assay type: functional
# Mucolipin-3 = biological target: T2, Mucolipin-3 (Homo sapiens, UniProt Q8TDD5); experiment: Fluorescence counterscreen assay for […] agonists: dose response cell-based high-throughput screening assay to identify agonists of the transient receptor potential channel ML3 (TRPML3). [Related pubchem assays: 1424, 1448 ]; assay type: functional
# T2 sequence (Q8TDD5 whole entry): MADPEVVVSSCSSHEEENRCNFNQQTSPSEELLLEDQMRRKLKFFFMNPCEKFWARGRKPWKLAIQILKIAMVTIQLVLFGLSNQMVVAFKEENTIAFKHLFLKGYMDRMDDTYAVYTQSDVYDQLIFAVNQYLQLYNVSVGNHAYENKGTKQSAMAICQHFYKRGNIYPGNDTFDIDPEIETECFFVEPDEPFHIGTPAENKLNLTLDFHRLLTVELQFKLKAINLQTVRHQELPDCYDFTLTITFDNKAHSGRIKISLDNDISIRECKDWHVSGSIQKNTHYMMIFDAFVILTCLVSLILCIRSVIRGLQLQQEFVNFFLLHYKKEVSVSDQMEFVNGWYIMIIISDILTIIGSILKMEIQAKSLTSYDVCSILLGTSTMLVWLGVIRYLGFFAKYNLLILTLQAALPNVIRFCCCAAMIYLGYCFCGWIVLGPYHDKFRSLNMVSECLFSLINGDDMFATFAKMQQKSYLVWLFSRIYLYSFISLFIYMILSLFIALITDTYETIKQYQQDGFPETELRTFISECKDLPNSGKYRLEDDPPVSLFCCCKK
# Oxytocin receptor = Oxytocin receptor (Homo sapiens, UniProt P30559); experiment: Fluorescence-based cell-based high throughput dose response assay for agonists of the Oxytocin Receptor (OXTR). [Related pubchem assays: 2435 (Primary screen (OXTR agonists in singlicate)), 434991 (Counterscreen (V1R agonists in triplicate)), 2482 (Summary (OXTR agonists)), 434963 (Confirmation screen (OXTR agonists in triplicate))]; assay type: functional
# Vasopressin V1a receptor = Vasopressin V1a receptor (Homo sapiens, UniProt P37288); experiment: Counterscreen for Oxytocin Receptor (OXTR) agonists: Fluorescence-based cell-based high throughput dose response assay to identify agonists of the vasopressin 1 receptor (V1R). [Related pubchem assays: 2435 (Primary screen (OXTR agonists in singlicate)), 434991 (Counterscreen (V1R agonists in triplicate)), 2482 (Summary (OXTR agonists)) …; assay type: functional
# Ion channel NompC = Ion channel NompC (Danio rerio, UniProt Q7T1G6); experiment: Dose response cell-based high-throughput screening assay for agonists of the transient receptor potential channel N1 (TRPN1). [Related pubchem assays (depositor defined):AID1424, AID1448]; assay type: functional
# [14] = IC50 of Artemis nuclease activity blockers – biochemical, fluorescence intensity, dose response (AID 720701); assay type: functional;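 note: Artemis endonuclease enzyme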
# [15] = Trypanosoma cruzi growth suppression in host cells – NIH3T3 host cells, beta-gal luminescence, confirmation (AID 2044); assay type: functional, cell-based;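 note: intracellular parasites grown in NIH/3T3 mouse fibroblasts as host cells; luminescent beta-galactosidase reporter signal from transgenic T. cruzi replicating inside host cells; inhibitors lower the luminescence signal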
# Protein RecA = biological target: T3, Protein RecA (Mycobacterium tuberculosis, UniProt P9WHJ3); experiment: Fluorescence Cell-Free Homogeneous Dose Retest to Identify Inhibitors of RecA-Intein Splicing Activity. [Related pubchem assays (depositor defined):AID2097, AID2223, AID489010, AID492950]; assay type: functional
# T3 sequence (P9WHJ3 whole entry): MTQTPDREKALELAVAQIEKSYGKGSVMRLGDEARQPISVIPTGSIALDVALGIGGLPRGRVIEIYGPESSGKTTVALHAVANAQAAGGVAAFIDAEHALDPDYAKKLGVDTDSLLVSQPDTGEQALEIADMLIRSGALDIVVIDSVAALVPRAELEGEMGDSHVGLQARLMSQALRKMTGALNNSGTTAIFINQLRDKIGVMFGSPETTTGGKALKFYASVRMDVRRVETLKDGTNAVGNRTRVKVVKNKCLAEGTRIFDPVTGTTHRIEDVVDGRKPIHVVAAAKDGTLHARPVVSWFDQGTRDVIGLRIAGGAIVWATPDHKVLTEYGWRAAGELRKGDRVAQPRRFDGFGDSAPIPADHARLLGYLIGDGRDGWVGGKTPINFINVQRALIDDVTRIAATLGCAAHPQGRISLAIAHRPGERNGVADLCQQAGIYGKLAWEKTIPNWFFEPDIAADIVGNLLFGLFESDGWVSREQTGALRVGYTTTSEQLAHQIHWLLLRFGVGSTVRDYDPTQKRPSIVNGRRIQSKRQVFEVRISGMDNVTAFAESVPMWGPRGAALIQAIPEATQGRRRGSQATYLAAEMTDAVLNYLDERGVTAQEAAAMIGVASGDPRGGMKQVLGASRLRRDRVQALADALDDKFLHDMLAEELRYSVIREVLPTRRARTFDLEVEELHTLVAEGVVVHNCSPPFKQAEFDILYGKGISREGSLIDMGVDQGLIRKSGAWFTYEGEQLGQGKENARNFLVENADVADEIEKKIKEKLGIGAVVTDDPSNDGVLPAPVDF
# [16] = NIH3T3 cell viability loss – ATP luminescence, mouse fibroblasts, counter-screen, dose response (AID 2010); assay type: functional, cell-based;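 note: cells exposed to compound for about 90 hours before reading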
# [17] = biological target: T4, Replicative DNA helicase DnaB (Mycobacterium tuberculosis, UniProt P9WMR3); experiment: DnaB intein splicing inhibitors, dose response, biochemical, cell-free fluorescence (AID 449749); assay type: functional
# T4 sequence (P9WMR3 whole entry): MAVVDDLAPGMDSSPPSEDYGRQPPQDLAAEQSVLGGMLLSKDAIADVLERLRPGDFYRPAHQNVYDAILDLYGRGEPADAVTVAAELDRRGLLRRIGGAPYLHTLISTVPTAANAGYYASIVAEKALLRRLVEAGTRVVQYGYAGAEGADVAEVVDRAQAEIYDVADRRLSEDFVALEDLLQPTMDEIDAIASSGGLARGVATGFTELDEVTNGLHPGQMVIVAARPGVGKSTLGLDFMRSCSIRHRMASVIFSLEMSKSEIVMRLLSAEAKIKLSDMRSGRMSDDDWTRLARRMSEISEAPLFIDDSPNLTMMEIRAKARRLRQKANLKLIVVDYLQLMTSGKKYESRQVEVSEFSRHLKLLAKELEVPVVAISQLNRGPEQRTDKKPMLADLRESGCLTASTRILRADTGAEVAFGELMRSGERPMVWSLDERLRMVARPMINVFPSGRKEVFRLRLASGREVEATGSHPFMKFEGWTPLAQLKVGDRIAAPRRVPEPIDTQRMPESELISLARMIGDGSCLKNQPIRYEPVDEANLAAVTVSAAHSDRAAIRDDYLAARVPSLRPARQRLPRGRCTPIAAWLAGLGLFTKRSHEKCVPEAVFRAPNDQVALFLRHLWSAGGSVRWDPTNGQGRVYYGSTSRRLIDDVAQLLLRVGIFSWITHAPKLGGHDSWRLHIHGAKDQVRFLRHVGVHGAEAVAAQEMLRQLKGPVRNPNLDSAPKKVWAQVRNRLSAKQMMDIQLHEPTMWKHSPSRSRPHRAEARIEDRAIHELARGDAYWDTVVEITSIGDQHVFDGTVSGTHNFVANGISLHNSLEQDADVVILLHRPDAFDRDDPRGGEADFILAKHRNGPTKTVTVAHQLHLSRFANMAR
# [18] = biological target: Likely tRNA 2'-phosphotransferase (Candida albicans (strain SC5314 / ATCC MYA-2876) (Yeast), UniProt Q5A7N4); experiment: inhibition of Candida TPT1 enzyme activity – biochemical, fluorescence polarization, dose response (AID 2160)
# [19] = biological target: Guanyl-specific ribonuclease T1 (Aspergillus oryzae (strain ATCC 42149 / RIB 40), UniProt P00651); experiment: inhibition of ribonuclease T1 activity – biochemical, fluorescence polarization, 1536-well, counter-screen for TPT1 inhibitor project, dose response (AID 2167)
# Chain of Guanyl-specific ribonuclease T1 (P00651 whole entry): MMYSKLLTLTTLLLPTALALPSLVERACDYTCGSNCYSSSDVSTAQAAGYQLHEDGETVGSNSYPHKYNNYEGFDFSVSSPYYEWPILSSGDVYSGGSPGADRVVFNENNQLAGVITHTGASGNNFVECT
# Chain of Likely tRNA 2'-phosphotransferase (Q5A7N4 whole entry): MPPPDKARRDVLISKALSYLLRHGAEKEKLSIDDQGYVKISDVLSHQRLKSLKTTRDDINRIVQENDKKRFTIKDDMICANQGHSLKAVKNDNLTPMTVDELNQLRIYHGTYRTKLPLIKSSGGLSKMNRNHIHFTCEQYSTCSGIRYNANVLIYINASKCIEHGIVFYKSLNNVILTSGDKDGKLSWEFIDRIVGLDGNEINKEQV
# Chain of Aspartyl aminopeptidase (Q8I2J3 whole entry): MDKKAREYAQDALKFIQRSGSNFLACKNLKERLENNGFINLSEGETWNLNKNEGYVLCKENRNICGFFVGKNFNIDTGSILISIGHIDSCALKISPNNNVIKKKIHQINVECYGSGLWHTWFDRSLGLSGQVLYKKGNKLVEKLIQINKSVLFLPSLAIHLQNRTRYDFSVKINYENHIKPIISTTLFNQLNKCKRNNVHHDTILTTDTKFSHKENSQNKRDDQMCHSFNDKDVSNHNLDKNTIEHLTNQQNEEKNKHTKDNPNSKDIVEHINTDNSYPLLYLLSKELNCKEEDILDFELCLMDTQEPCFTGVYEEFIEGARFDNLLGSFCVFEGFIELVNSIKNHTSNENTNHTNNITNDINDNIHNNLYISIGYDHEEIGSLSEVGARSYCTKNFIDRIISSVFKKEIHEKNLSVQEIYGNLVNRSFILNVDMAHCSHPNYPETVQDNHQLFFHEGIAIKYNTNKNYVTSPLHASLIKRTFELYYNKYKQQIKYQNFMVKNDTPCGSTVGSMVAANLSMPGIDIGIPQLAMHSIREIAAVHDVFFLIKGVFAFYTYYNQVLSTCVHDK
# Chain of Vasopressin V1a receptor (P37288 whole entry): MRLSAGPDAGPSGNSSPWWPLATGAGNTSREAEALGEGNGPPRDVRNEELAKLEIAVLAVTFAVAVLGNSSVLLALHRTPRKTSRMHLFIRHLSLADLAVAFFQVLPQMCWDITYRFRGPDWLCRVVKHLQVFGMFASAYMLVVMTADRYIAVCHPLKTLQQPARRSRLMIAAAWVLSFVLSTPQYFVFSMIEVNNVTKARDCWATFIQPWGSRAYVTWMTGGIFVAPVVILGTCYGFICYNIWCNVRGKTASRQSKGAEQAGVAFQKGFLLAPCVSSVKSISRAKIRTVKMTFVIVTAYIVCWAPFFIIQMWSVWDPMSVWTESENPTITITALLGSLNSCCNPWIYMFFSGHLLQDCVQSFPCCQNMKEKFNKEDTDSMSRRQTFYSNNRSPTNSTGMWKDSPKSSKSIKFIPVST
# Chain of Oxytocin receptor (P30559 whole entry): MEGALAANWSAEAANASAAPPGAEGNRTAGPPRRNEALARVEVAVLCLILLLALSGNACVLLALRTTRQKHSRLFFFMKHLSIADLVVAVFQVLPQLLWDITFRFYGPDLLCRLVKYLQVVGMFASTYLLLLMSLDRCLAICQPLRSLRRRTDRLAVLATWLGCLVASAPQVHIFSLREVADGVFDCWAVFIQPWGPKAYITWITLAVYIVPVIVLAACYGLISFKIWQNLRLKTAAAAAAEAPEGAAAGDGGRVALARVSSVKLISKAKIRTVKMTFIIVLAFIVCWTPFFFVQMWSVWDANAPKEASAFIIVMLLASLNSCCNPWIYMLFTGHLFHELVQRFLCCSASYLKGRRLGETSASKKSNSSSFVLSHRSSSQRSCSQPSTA
# Chain of Mitochondrial peptide methionine sulfoxide reductase (P54149 whole entry): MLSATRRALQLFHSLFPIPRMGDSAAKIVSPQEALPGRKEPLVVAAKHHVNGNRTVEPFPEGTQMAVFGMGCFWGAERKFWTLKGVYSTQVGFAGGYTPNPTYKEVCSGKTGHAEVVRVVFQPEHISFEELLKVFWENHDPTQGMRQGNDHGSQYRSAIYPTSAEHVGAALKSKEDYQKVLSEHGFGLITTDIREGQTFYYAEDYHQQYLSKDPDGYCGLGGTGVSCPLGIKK
# Chain of Large T antigen (P03070 whole entry): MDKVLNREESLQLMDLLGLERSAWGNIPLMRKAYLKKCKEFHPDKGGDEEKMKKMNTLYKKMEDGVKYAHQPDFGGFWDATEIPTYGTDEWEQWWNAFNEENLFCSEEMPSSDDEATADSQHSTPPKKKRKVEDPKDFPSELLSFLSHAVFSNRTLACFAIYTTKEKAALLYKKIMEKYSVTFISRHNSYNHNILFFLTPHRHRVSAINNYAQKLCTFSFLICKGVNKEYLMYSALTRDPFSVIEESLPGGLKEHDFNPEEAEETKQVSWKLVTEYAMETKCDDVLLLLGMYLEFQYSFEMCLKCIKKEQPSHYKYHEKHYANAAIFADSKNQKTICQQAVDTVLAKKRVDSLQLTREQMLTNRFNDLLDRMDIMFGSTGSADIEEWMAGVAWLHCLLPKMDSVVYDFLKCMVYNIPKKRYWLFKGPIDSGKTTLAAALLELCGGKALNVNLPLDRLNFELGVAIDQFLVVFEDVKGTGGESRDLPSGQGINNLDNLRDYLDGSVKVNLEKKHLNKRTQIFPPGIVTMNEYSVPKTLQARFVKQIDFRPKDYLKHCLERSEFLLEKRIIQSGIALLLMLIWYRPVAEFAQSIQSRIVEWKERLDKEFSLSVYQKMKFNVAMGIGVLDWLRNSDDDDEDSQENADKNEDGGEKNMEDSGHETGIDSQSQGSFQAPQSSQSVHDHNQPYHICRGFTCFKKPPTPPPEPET
# Chain of DNA dC->dU-editing enzyme APOBEC-3A (P31941 whole entry): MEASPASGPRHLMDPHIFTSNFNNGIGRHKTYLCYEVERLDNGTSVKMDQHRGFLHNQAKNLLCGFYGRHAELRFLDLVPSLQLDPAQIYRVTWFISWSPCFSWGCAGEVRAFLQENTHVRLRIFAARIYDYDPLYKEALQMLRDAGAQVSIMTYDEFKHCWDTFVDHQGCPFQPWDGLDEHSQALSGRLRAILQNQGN
# Chain of Galanin receptor type 2 (O43603 whole entry): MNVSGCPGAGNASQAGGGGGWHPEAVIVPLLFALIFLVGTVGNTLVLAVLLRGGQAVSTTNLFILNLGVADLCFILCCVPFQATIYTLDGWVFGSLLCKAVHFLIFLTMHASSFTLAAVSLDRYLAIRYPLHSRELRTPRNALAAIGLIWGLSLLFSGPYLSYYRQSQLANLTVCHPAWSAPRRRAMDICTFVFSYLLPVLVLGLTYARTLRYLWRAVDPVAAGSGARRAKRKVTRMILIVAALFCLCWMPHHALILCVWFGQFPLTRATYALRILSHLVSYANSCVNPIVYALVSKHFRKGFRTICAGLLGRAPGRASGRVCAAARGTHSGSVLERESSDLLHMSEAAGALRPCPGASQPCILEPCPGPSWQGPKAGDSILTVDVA
# Chain of DNA dC->dU-editing enzyme APOBEC-3G (Q9HC16 whole entry): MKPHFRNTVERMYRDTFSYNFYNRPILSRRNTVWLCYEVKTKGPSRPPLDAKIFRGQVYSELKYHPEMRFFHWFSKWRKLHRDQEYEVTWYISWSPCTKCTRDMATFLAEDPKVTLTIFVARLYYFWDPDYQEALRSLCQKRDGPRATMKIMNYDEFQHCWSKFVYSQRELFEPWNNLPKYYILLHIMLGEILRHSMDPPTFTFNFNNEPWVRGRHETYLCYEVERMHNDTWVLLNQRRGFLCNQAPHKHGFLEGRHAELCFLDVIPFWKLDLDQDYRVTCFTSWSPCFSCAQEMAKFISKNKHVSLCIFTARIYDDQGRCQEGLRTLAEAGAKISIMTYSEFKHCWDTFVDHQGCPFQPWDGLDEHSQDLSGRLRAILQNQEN
# Chain of Glucose-6-phosphate 1-dehydrogenase (P11413 whole entry): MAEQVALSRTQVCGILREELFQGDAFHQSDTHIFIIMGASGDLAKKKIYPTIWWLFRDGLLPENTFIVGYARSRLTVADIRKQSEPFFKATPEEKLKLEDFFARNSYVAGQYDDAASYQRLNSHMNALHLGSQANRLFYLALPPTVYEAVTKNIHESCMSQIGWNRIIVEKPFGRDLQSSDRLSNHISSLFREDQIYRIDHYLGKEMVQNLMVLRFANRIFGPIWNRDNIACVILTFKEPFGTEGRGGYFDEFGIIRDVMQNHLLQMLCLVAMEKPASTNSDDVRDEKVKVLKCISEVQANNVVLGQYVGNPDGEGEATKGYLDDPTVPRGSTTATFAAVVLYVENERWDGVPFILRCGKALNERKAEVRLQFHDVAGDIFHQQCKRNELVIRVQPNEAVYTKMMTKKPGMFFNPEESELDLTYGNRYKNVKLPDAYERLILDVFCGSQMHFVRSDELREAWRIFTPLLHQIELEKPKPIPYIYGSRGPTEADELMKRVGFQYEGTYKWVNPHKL
# Chain of Cytochrome P450 2D6 (P10635 whole entry): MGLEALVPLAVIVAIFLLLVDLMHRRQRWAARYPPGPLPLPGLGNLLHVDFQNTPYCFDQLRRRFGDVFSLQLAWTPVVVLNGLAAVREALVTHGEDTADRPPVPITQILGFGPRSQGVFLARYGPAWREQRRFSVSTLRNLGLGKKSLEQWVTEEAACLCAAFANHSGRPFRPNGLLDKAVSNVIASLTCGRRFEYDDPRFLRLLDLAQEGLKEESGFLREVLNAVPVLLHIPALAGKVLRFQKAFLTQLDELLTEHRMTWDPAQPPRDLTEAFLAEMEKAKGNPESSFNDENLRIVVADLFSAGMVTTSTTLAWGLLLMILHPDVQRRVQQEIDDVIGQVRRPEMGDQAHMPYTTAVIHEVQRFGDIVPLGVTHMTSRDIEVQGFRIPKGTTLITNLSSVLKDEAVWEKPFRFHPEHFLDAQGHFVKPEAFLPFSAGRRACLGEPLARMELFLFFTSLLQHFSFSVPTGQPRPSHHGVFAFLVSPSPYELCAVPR
structure (smiles),measurement,setting,value
Cc1ccccc1-n1sc2cc(F)ccc2c1=O,IC50,[1],> 100 µM (inactive)
same,IC50,Hexokinase,4.8 µM (active)
same,IC50,Aspartyl aminopeptidase,0.648 µM (active)
same,IC50,[2],13.9 µM (active)
same,IC50,[3],36.7 µM (inactive)
same,IC50,[4],6.73 µM (active)
same,IC50,Procathepsin L,> 59.6 µM (not active)
same,IC50,[5],9.02 µM (active)
same,CC50,[6],13 µM (active)
same,IC50,cells,23.7 µM (active)
same,CC50,[7],12.1 µM (active)
same,IC50,Large T antigen,13.1 µM (active)
same,CC50,[8],19 µM (active)
same,EC50,[9],> 104 µM (inactive)
same,IC50,[10],39.6 µM (inactive)
same,IC50,[11],8.95 µM (active)
O=C1C=C(NCc2ccc(Cl)cc2)CC(c2ccco2)C1 (stereo unspecified),IC50,[12],41.3 µM (active)
same,IC50,[13],64.6 µM (active)
COC(=O)[C@@H]1C[C@H]1[C@@H](NC(=O)OCc1ccccc1)c1ccccc1,AC50,Cytochrome P450 2D6,12.6 µM (inconclusive)
C/N=c1\[nH]c2cc([N+](=O)[O-])c([N+](=O)[O-])cc2[nH]\c1=N\C,IC50,Galanin receptor type 2,1.29 µM (active)
same,EC50,Mucolipin-3,> 29.9 µM (not active)
same,EC50,Oxytocin receptor,> 29.9 µM (not active)
same,EC50,Vasopressin V1a receptor,> 29.9 µM (not active)
same,EC50,Ion channel NompC,> 29.9 µM (inactive)
Cc1ccc2nc(N/N=C\c3ccc([N+](=O)[O-])o3)nc(-c3ccccc3)c2c1,IC50,[14],> 20 µM (inactive)
same,EC50,[15],0.176 µM (active)
same,EC50,Protein RecA,208 µM (inconclusive)
same,EC50,[16],9.01 µM (active)
same,AC50,[17],> 380 µM (inactive)
same,IC50,[18],> 55.7 µM (not active)
same,IC50,[19],> 55.7 µM (not active)
